Legend:
hERG = hERG (Homo sapiens (Human), UniProt Q12809); assay: hERG assay 1 (standard), SyncroPatch 384PE; type: cell-based; settings: CHO cells, room temperature, up to 40 uM
Procedure, shortened: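 Automated patch clamp on hERG-expressing CHO-K1 cells at room temperature, +60/−40 mV protocol every 15 s. Six-point cumulative concentrations 139 nM to 40 uM (0.33% DMSO final); IC50 from one-site fit of % inhibition. Wells required ≥30 MegaOhm seal, current >0.2 nA, Z prime >0.4.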

[1] = Human liver microsomes (HLMs) intrinsic clearance assay; type: in vitro ADME; settings: for microsomal CLint at 1 µM: pH 7.4, HLM CLint
[2] = human, microsomes, 1 µM, pH 7.4

Chain of hERG (Q12809 whole entry): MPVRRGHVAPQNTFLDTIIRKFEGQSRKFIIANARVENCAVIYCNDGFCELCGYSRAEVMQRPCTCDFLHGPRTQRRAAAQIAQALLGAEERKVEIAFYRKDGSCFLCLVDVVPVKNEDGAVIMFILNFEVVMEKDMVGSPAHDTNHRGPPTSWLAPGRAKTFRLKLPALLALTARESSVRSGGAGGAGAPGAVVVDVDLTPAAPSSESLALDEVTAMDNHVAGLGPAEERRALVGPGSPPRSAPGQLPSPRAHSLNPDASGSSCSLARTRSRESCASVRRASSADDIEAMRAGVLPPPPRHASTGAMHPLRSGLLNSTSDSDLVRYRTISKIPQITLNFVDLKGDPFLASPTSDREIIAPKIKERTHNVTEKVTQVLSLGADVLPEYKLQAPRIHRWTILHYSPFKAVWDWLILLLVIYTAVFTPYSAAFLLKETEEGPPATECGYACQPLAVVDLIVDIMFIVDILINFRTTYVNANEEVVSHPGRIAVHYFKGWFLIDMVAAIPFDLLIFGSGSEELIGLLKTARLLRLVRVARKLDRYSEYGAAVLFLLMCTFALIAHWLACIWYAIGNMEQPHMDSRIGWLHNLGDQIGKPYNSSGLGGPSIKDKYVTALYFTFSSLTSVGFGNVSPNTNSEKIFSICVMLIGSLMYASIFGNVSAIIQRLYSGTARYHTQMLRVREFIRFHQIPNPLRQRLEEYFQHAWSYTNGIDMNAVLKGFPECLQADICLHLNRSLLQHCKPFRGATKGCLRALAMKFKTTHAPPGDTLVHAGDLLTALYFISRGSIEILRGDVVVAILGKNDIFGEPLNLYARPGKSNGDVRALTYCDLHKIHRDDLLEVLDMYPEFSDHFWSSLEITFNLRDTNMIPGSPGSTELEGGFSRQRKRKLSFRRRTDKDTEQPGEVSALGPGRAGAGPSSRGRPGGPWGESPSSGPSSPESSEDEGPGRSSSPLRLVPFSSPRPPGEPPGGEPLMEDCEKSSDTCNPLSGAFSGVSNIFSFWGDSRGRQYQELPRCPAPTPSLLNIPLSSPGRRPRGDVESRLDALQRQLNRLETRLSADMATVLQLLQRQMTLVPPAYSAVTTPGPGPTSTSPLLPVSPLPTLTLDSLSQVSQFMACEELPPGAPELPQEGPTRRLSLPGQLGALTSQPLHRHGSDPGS

Row | SMILES | microsomal CLint at 1 µM ([1]; human, microsomes) | HLM CLint [1, 2] | IC50 (hERG) | HLM CLint ([1]; 1 mg/mL HLM, NADPH)
1 | CCN(C(=O)c1cc(F)ccc1-n1c(C)c(C(=O)C2CCN(C(=O)[C@@H]3CCC4(CC4)N3)CC2)c2ccncc21)C(C)C (single isomer, unassigned) [Example 49-2] |  |  | > 38 µM | 127 µL/min/mg
2 | CCN(C(=O)c1cc(F)ccc1-n1c(C)c(C(=O)[C@@H]2CCN(C(=O)[C@@H]3CC[C@H](C)N3)[C@@H](C)C2)c2ccncc21)C(C)C (stereo in doubt) [Example 63, N-Ethyl-5-fluoro-N-isopropyl-2-(2-methyl-3-((2S,4RS)-2-methyl-1-((2S,5S)-5-methylpyrrolidine-2-carbonyl)piperidine-4-carbonyl)-1H-pyrrolo[2,3-c]pyridine-1-yl)benzamide] | 63 µL/min/mg |  | > 40 µM | 
3 | CC(C)N(C(=O)c1cc(F)ccc1-n1cc(C(=O)C2CCN(C(=O)[C@H]3NC[C@@H]4CC[C@@H]43)CC2)c2ccncc21)C(C)C (relative stereo) [Example 25, rel-2-(3-(1-((1R,2R,5S)-3-Azabicyclo[3.2.0]heptane-2-carbonyl)piperidine-4-carbonyl)-1H-pyrrolo[2,3-c]pyridin-1-yl)-5-fluoro-N,N-diisopropylbenzamide] | 94 µL/min/mg |  | > 40 µM | 
4 | CCN(C(=O)c1cc(F)ccc1-n1c(C)c(C(=O)C2CCN(C(=O)[C@H]3NC[C@@H]4C[C@@H]43)CC2)c2ccncc21)C(C)C [Example 47, 2-(3-(1-((1S,2S,5R)-3-Azabicyclo[3.1.0]hexane-2-carbonyl)piperidine-4-carbonyl)-2-methyl-1H-pyrrolo[2,3-c]pyridin-1-yl)-N-ethyl-5-fluoro-N-isopropylbenzamide] | 54 µL/min/mg |  | > 40 µM | 
5 | CCN(C(=O)c1cc(F)ccc1-n1cc(C(=O)C2CN(C(=O)[C@H]3N[C@@H]4CC[C@H]3C4)C2)c2ccncc21)C(C)C [Example 8, 2-(3-(1-((1R,3S,4S)-2-Azabicyclo[2.2.1]heptane-3-carbonyl)azetidine-3-carbonyl)-1H-pyrrolo[2,3-c]pyridin-1-yl)-N-ethyl-5-fluoro-N-isopropylbenzamide] | 21 µL/min/mg |  | > 40 µM | 
6 | CCN(C(=O)c1cc(F)ccc1-n1cc(C(=O)C2CCN(C(=O)[C@H]3NC[C@@H]4C[C@@H]43)CC2)c2ccncc21)C(C)C [Example 28, 2-(3-(1-((1S,2S,5R)-3-Azabicyclo[3.1.0]hexane-2-carbonyl)piperidine-4-carbonyl)-1H-pyrrolo[2,3-c]pyridin-1-yl)-N-ethyl-5-fluoro-N-isopropylbenzamide] | 41 µL/min/mg |  | > 40 µM | 
7 | CC(C)c1ncccc1-c1cc(F)ccc1-n1cc(C(=O)C2CCN(C(=O)[C@H]3N[C@@H]4CC[C@H]3C4)CC2)c2ccncc21 [Example 38, (1-((1R,3S,4S)-2-Azabicyclo[2.2.1]heptane-3-carbonyl)piperidin-4-yl)(1-(4-fluoro-2-(2-isopropylpyridin-3-yl)phenyl)-1H-pyrrolo[2,3-c]pyridin-3-yl)methanone] | 131 µL/min/mg |  | > 40 µM | 
8 | Cc1c(C(=O)C2CCN(C(=O)[C@@H]3CCC(C)(C)N3)CC2)c2ccncc2n1-c1ccc(F)cc1C(=O)N(C(C)C)C(C)C (single isomer, unassigned) [Example 56-1] | 133 µL/min/mg |  | > 40 µM | 
9 | O=C(c1cn(-c2ccc(F)cc2-c2cncnc2C2CC2)c2cnccc12)C1CCN(C(=O)[C@H]2N[C@@H]3CC[C@H]2C3)CC1 [Example 40, (1-((1R,3S,4S)-2-Azabicyclo[2.2.1]heptane-3-carbonyl)piperidin-4-yl)(1-(2-(4-cyclopropylpyrimidin-5-yl)-4-fluorophenyl)-1H-pyrrolo[2,3-c]pyridin-3-yl)methanone] | 18 µL/min/mg |  | > 40 µM | 
10 | CC(C)N(C(=O)c1cc(F)ccc1-n1cc(C(=O)[C@H]2CCN(C(=O)[C@H]3N[C@@H]4CC[C@H]3C4)C2)c2ccncc21)C(C)C [Example 2, 2-(3-((S)-1-((1R,3S,4S)-2-Azabicyclo[2.2.1]heptane-3-carbonyl)pyrrolidine-3-carbonyl)-1H-pyrrolo[2,3-c]pyridin-1-yl)-5-fluoro-N,N-diisopropylbenzamide] | 43 µL/min/mg |  | > 40 µM | 
11 | CC(C)N(C(=O)c1cc(F)ccc1-n1cc(C(=O)C2CCN(C[C@H]3CC[C@H](NS(C)(=O)=O)CC3)CC2)c2ccncc21)C(C)C [Example 17, 5-Fluoro-N,N-diisopropyl-2-(3-(1-(((1r,4r)-4-(methylsulfonamido)cyclohexyl)-methyl)piperidine-4-carbonyl)-1H-pyrrolo[2,3-c]pyridin-1-yl)benzamide] | 52 µL/min/mg |  | 9.1 µM | 
12 | Cc1c(C(=O)[C@@H]2CCN(C(=O)[C@@H]3CC[C@H](C)N3)[C@@H](C)C2)c2ccncc2n1-c1ccc(F)cc1C(=O)N(C(C)C)C(C)C (stereo in doubt) [Example 62, 5-Fluoro-N,N-diisopropyl-2-(2-methyl-3-((2S,4RS)-2-methyl-1-((2S,5S)-5-methylpyrrolidine-2-carbonyl)piperidine-4-carbonyl)-1H-pyrrolo[2,3-c]pyridin-1-yl)benzamide] | 12 µL/min/mg |  | > 40 µM | 
13 | CCN(C(=O)c1cc(F)ccc1-n1c(C)c(C(=O)C2CCN(C(=O)[C@H]3NC[C@@H]4C[C@@H]43)CC2)c2ccncc21)C(C)C (single isomer, unassigned) [Example 48-1] |  | 69 µL/min/mg | > 40 µM | 
14 | CC(C)N(C(=O)c1cc(F)ccc1-n1cc(C(=O)[C@H]2CCN(C[C@H]3CC[C@H](NS(C)(=O)=O)CC3)C2)c2ccncc21)C(C)C [Example 1, 5-Fluoro-N,N-diisopropyl-2-(3-((S)-1-(((1r,4S)-4-(methylsulfonamido)-cyclohexyl)methyl)pyrrolidine-3-carbonyl)-1H-pyrrolo[2,3-c]pyridin-1-yl)benzamide] | 178 µL/min/mg |  | 9.9 µM | 
15 | CC(C)c1cnccc1-c1cc(F)ccc1-n1cc(C(=O)C2CN(C(=O)[C@H]3N[C@@H]4CC[C@H]3C4)C2)c2ccncc21.O=CO [Example 11, (1-((1R,3S,4S)-2-Azabicyclo[2.2.1]heptane-3-carbonyl)azetidin-3-yl)(1-(4-fluoro-2-(3-isopropylpyridin-4-yl)phenyl)-1H-pyrrolo[2,3-c]pyridin-3-yl)methanone 1·formic acid] | > 294 µL/min/mg |  | > 40 µM | 
16 | Cc1c(C(=O)C2CCN(C(=O)[C@H]3NC[C@@H]4C[C@@H]43)CC2)c2ccncc2n1-c1ccc(F)cc1-c1cnccc1C(C)C [Example 54, (1-((1S,2S,5R)-3-Azabicyclo[3.1.0]hexane-2-carbonyl)piperidin-4-yl)(1-(4-fluoro-2-(4-isopropylpyridin-3-yl)phenyl)-2-methyl-1H-pyrrolo[2,3-c]pyridin-3-yl)methanone] | 73 µL/min/mg |  | 13.1 µM | 
17 | CC(C)N(C(=O)c1cc(F)ccc1-n1cc(C(=O)C2CCN(C(=O)[C@H]3N[C@@H]4CC[C@H]3C4)CC2)c2ccncc21)C(C)C [Example 16, 2-(3-(1-((1R,3S,4S)-2-Azabicyclo[2.2.1]heptane-3-carbonyl)piperidine-4-carbonyl)-1H-pyrrolo[2,3-c]pyridin-1-yl)-5-fluoro-N,N-diisopropylbenzamide] | 27 µL/min/mg |  | > 40 µM | 
18 | COCCN(C)CCC[C@H](C(C)C)N1CCC(C(=O)c2cn(-c3ccc(F)cc3C(=O)N(C(C)C)C(C)C)c3cnccc23)CC1 (racemic) [Example 23, rac-(R)-5-Fluoro-N,N-diisopropyl-2-(3-(1-(6-((2-methoxyethyl)(methyl)amino)-2-methylhexan-3-yl)piperidine-4-carbonyl)-1H-pyrrolo[2,3-c]pyridin-1-yl)benzamide] | 156 µL/min/mg |  | 30.6 µM | 
19 | Cc1c(C(=O)C2CCN(C(=O)[C@@H]3CCC4(CC4)N3)CC2)c2ccncc2n1-c1ccc(F)cc1C(=O)N1[C@H](C)COC[C@H]1C (single isomer, unassigned) [Example 58-2] |  |  | > 40 µM | 85 µL/min/mg
20 | CC(C)N(C(=O)c1cc(F)ccc1-n1cc(C(=O)[C@@H]2CCN(C(=O)[C@H]3N[C@@H]4CC[C@H]3C4)C2)c2ccncc21)C(C)C [Example 3, 2-(3-((R)-1-((1R,3S,4S)-2-Azabicyclo[2.2.1]heptane-3-carbonyl)pyrrolidine-3-carbonyl)-1H-pyrrolo[2,3-c]pyridin-1-yl)-5-fluoro-N,N-diisopropylbenzamide] | 41 µL/min/mg |  | 38.8 µM | 
21 | CC(C)N(C(=O)c1cc(F)ccc1-n1cc(C(=O)C2CCN(C(=O)[C@@H]3CCC(C)(C)N3)CC2)c2ccncc21)C(C)C [Example 27, (S)-2-(3-(1-(5,5-Dimethylpyrrolidine-2-carbonyl)piperidine-4-carbonyl)-1H-pyrrolo[2,3-c]pyridin-1-yl)-5-fluoro-N,N-diisopropylbenzamide] | 46 µL/min/mg |  | > 40 µM | 

Second part, led by results:

Row | microsomal CLint at 1 µM ([1]; human, microsomes) | HLM CLint [1, 2] | SMILES | IC50 (hERG) | HLM CLint ([1]; 1 mg/mL HLM, NADPH)
22 | 54 µL/min/mg |  | Cc1c(C(=O)C2CCN(C(=O)[C@H]3NC[C@@H]4C[C@@H]43)CC2)c2ccncc2n1-c1ccc(F)cc1C(=O)N(CC(F)(F)F)C(C)C (single isomer, unassigned) [Example 51-1] | > 40 µM | 
23 |  | 155 µL/min/mg | Cc1c(C(=O)[C@@H]2CCN(C(=O)[C@H]3NC[C@@H]4C[C@@H]43)[C@@H](C)C2)c2ccncc2n1-c1ccc(F)cc1C(=O)N(CC(F)(F)F)C(C)C (single isomer, unassigned) [Example 53-3, 2-(3-((2R*,4S*)-1-((1S,2S,5R)-3-Azabicyclo[3.1.0]hexane-2-carbonyl)-2-methylpiperidine-4-carbonyl)-2-methyl-1H-pyrrolo[2,3-c]pyridin-1-yl)-5-fluoro-N-isopropyl-N-(2,2,2-trifluoroethyl)benzamide] | 31.4 µM | 
24 | 125 µL/min/mg |  | Cc1c(C(=O)C2CCN(C(=O)[C@H]3NC[C@@H]4C[C@@H]43)CC2)c2ccncc2n1-c1ccc(F)cc1C(=O)N(C(C)C)C(C)C (single isomer, unassigned) [Example 55-1] | > 40 µM | 
